Test results published in patent US8163702B2, “Treatment of melanoma” (SciClone Pharmaceuticals, Inc., priority 2006, dated 2012).
Where “and” joins values, the source holds several entries; their conditions need not be identical. Equal entries are not always repeated.

Tested on: murine B16 melanoma
Assay: Antitumor effect in murine B16 melanoma model, tumor size and tumor weight (Example 2)
Type: in vivo, C57BL/6 mice
Conditions: for Tumor volumes / Tumor measurements L / Tumor measurements W: Day 12; for IR (tumor volume inhibition rate) / Tumor Volume (Mean ± SD) / Tumor volumes (cm^3) on Day 15 / Tumor measurements (cm) on Day 15, L / Tumor measurements (cm) on Day 15, W: Day 15; for IR (inhibition rate of tumor weight) / Tumor Weight (Mean ± SD) / Tumor weights (g) on Day 17: Day 17; for Tumor volumes (cm^3) on Day 15: Length × Width × Width/2; for Tumor volumes (cm^3) on Day 15 / Tumor measurements (cm) on Day 15, L / Tumor measurements (cm) on Day 15, W / Tumor weights (g) on Day 17: individual animals F1-F5, M1-M5
Method: As per aseptic tissue culture procedures, one vial of B16 melanoma cells (supplied by Cell Culture Center of CAMS) was thawed and centrifuged at 1000 rpm, 20-25° C. for 5 minutes. The cell pellets were suspended in 0.1-0.5 mL normal saline (NS) and subcutaneously injected into the right axilla of each mouse (approximately 1×10^6 cells/mouse). When the tumor diameter was 1 cm approximately (measured by vernier caliper), the animals were euthanized with CO2 asphyxiation and the tumor was excised. Tumor cells were suspended in normal saline as previously described and the cell adaptation cycle was repeated once.
On Day 0, 1×10^6 B16 cells in a volume of 0.1 mL normal saline were subcutaneously injected into the right axillary area of the mouse. The day of tumor inoculation was defined as Day 0.
Dosing was initiated on Day 1.
Observations were recorded daily for mortality and moribundity. […] The tumors were excised, separated, and weighed.
Tumor volume was calculated using the following formula: Tumor Volume=Length×Width×Width/2 Tumor volume inhibition rate (IR) was calculated according to the formula: IR(TV)=(TVvehicle−TVdrug treated)/TVvehicle×100% TV is the tumor volume on the day of measurement.
The antitumor effect of the test article was also evaluated by tumor weight. The tumor weight of each mouse was recorded after euthanasia, and the inhibition rate of tumor weight was calculated according to the formula: IR(TW)=(Tumor weightvehicle−Tumor weightdrug treated)/Tumor weightvehicle×100%

[1] = SCV-07 0.01 mg/kg (Group 3), 0.01 mg/kg, female animals
[2] = SCV-07 0.01 mg/kg (Group 3), 0.01 mg/kg, male animals
[3] = SCV-07 0.01 mg/kg (Group 3), 0.01 mg/kg
[4] = SCV-07 0.1 mg/kg (Group 4), 0.1 mg/kg, female animals
[5] = SCV-07 0.1 mg/kg (Group 4), 0.1 mg/kg, male animals
[6] = SCV-07 0.1 mg/kg (Group 4), 0.1 mg/kg
[7] = SCV-07 1.0 mg/kg (Group 5), 1 mg/kg, female animals
[8] = SCV-07 1.0 mg/kg (Group 5), 1 mg/kg, male animals
[9] = SCV-07 1.0 mg/kg (Group 5), 1 mg/kg
[10] = SCV-07 5.0 mg/kg (Group 6), 5 mg/kg, female animals
[11] = SCV-07 5.0 mg/kg (Group 6), 5 mg/kg, male animals
[12] = SCV-07 5.0 mg/kg (Group 6), 5 mg/kg

N[C@H](CCC(=O)N[C@@H](Cc1c[nH]c2ccccc12)C(=O)O)C(=O)O [SCV-07, γ-D-glutamyl-L-tryptophan]
Tumor volumes (mouse M3, SCV-07 0.1 mg/kg sc): 0.67 cm^3 | Tumor measurements L (mouse M3, SCV-07 1.0 mg/kg sc): 0.7 cm | Tumor measurements W (mouse M3, SCV-07 1.0 mg/kg sc): 0.7 cm | Tumor volumes (mouse M3, SCV-07 1.0 mg/kg sc): 0.17 cm^3 | Tumor measurements L (mouse M3, SCV-07 5.0 mg/kg sc): 0.9 cm | Tumor measurements W (mouse M3, SCV-07 5.0 mg/kg sc): 0.9 cm | Tumor volumes (mouse M3, SCV-07 5.0 mg/kg sc): 0.36 cm^3 | Tumor measurements L (mouse M4, SCV-07 0.01 mg/kg sc): 1.0 cm | Tumor measurements W (mouse M4, SCV-07 0.01 mg/kg sc): 1.0 cm | Tumor volumes (mouse M4, SCV-07 0.01 mg/kg sc): 0.50 cm^3 | Tumor measurements L (mouse M4, SCV-07 0.1 mg/kg sc): 1.0 cm | Tumor measurements W (mouse M4, SCV-07 0.1 mg/kg sc): 0.9 cm | Tumor volumes (mouse M4, SCV-07 0.1 mg/kg sc): 0.41 cm^3 | Tumor measurements L (mouse M4, SCV-07 1.0 mg/kg sc): 1.0 cm | Tumor measurements W (mouse M4, SCV-07 1.0 mg/kg sc): 0.7 cm | Tumor volumes (mouse M4, SCV-07 1.0 mg/kg sc): 0.25 cm^3 | Tumor measurements L (mouse M4, SCV-07 5.0 mg/kg sc): 1.1 cm | Tumor measurements W (mouse M4, SCV-07 5.0 mg/kg sc): 1.1 cm | Tumor volumes (mouse M4, SCV-07 5.0 mg/kg sc): 0.67 cm^3 | Tumor measurements L (mouse M5, SCV-07 0.01 mg/kg sc): 1.1 cm | Tumor measurements W (mouse M5, SCV-07 0.01 mg/kg sc): 1.0 cm | Tumor volumes (mouse M5, SCV-07 0.01 mg/kg sc): 0.55 cm^3 | Tumor measurements L (mouse M5, SCV-07 0.1 mg/kg sc): 0.9 cm | Tumor measurements W (mouse M5, SCV-07 0.1 mg/kg sc): 0.9 cm | Tumor volumes (mouse M5, SCV-07 0.1 mg/kg sc): 0.36 cm^3 | Tumor measurements L (mouse M5, SCV-07 1.0 mg/kg sc): 0.8 cm | Tumor measurements W (mouse M5, SCV-07 1.0 mg/kg sc): 0.7 cm | Tumor volumes (mouse M5, SCV-07 1.0 mg/kg sc): 0.20 cm^3 | IR (tumor volume inhibition rate) (SCV-07 0.01 mg/kg/day sc): 15.3% | Tumor Volume (Mean ± SD) (SCV-07 0.01 mg/kg/day sc): 1.642 ± 0.549 cm^3 | IR (tumor volume inhibition rate) (SCV-07 0.1 mg/kg/day sc): 7.9% | Tumor Volume (Mean ± SD) (SCV-07 0.1 mg/kg/day sc): 1.786 ± 0.524 cm^3 | IR (tumor volume inhibition rate) (SCV-07 1.0 mg/kg/day sc): 16.5% | Tumor Volume (Mean ± SD) (SCV-07 1.0 mg/kg/day sc): 1.617 ± 0.274 cm^3 | IR (tumor volume inhibition rate) (SCV-07 5.0 mg/kg/day sc): 30.2% | Tumor Volume (Mean ± SD) (SCV-07 5.0 mg/kg/day sc): 1.353 ± 0.591 cm^3 | IR (inhibition rate of tumor weight) (SCV-07 0.01 mg/kg/day sc): 27.5% | Tumor Weight (Mean ± SD) (SCV-07 0.01 mg/kg/day sc): 2.77 ± 0.88 g | IR (inhibition rate of tumor weight) (SCV-07 0.1 mg/kg/day sc): 5.8% | Tumor Weight (Mean ± SD) (SCV-07 0.1 mg/kg/day sc): 3.59 ± 0.62 g | IR (inhibition rate of tumor weight) (SCV-07 1.0 mg/kg/day sc): 23.5% | Tumor Weight (Mean ± SD) (SCV-07 1.0 mg/kg/day sc): 2.92 ± 0.55 g | IR (inhibition rate of tumor weight) (SCV-07 5.0 mg/kg/day sc): 30.8% | Tumor Weight (Mean ± SD) (SCV-07 5.0 mg/kg/day sc): 2.64 ± 1.14 g | Tumor volumes (cm^3) on Day 15 [1]: 1.37 cm^3 and 1.69 cm^3 (3×) and 1.47 cm^3 | Tumor volumes (cm^3) on Day 15 [2]: 1.57 cm^3 and 1.69 cm^3 and 3.18 cm^3 and 1.47 cm^3 and 2.05 cm^3 | Tumor measurements (cm) on Day 15, L [3]: 1.5 cm and 1.8 cm (3×) and 1.4 cm (5×) and 1.3 cm | Tumor measurements (cm) on Day 15, W [3]: 1.5 cm (3×) and 1.4 cm (4×) and 1.3 cm (2×) and 1.8 cm | Tumor weights (g) on Day 17 [1]: 1.55 g and 2.04 g and 2.24 g and 3.71 g and 3.21 g | Tumor weights (g) on Day 17 [2]: 2.77 g and 2.80 g and 4.57 g and 2.29 g and 2.50 g | Tumor volumes (cm^3) on Day 15 [4]: 1.18 cm^3 (2×) and 1.69 cm^3 (2×) and 1.80 cm^3 | Tumor volumes (cm^3) on Day 15 [5]: 1.69 cm^3 (2×) and 1.77 cm^3 and 1.44 cm^3 and 2.05 cm^3 | Tumor measurements (cm) on Day 15, L [6]: 1.5 cm (6×) and 2.2 cm and 1.6 cm (2×) and 1.4 cm | Tumor measurements (cm) on Day 15, W [6]: 1.4 cm (4×) and 1.7 cm and 1.6 cm and 1.5 cm (4×) | Tumor weights (g) on Day 17 [4]: 2.46 g and 4.08 g and 4.03 g and 3.93 g and 3.52 g | Tumor weights (g) on Day 17 [5]: 3.10 g and 3.73 g and 4.47 g and 2.86 g and 3.74 g | Tumor volumes (cm^3) on Day 15 [7]: 1.10 cm^3 and 1.37 cm^3 and 1.80 cm^3 and 1.35 cm^3 and 1.57 cm^3 | Tumor volumes (cm^3) on Day 15 [8]: 1.47 cm^3 (2×) and 2.30 cm^3 and 1.10 cm^3 | Tumor measurements (cm) on Day 15, L [9]: 1.5 cm (3×) and 1.7 cm and 1.6 cm (2×) and 2 cm and 1.4 cm (2×) and 2.1 cm | Tumor measurements (cm) on Day 15, W [9]: 1.5 cm (4×) and 1.3 cm (5×) and 1.6 cm | Tumor weights (g) on Day 17 [7]: 2.69 g and 2.67 g and 4.06 g and 2.66 g and 3.25 g | Tumor weights (g) on Day 17 [8]: 3.58 g and 2.89 g and 2.25 g and 2.55 g and 2.58 g | Tumor volumes (cm^3) on Day 15 [10]: 1.91 cm^3 and 2.56 cm^3 and 1.69 cm^3 and 2.03 cm^3 and 1.57 cm^3 | Tumor volumes (cm^3) on Day 15 [11]: 1.37 cm^3 and 2.05 cm^3 (2×) and 2.03 cm^3 and 2.14 cm^3 | Tumor measurements (cm) on Day 15, L [12]: 1.6 cm (3×) and 1.5 cm (2×) and 1.8 cm and 1.3 cm (2×) and 1.4 cm | Tumor measurements (cm) on Day 15, W [12]: 1.4 cm (4×) and 1.6 cm and 1.3 cm (3×) and 1.5 cm | Tumor weights (g) on Day 17 [10]: 1.94 g and 3.15 g and 2.97 g and 2.80 g and 2.85 g | Tumor weights (g) on Day 17 [11]: 4.30 g and 0.15 g and 2.45 g and 3.78 g and 2.02 g | B16 melanoma tumor growth (SCV-07 0.01, 1.0 and 5.0 mg/kg/day sc for 14 days): significantly reduced
